Test results as given in patent publication US20240180158A1, “COMPOUNDS HAVING SELECTIVE INACTIVATION ACTIVITY” (University of North Carolina at Wilmington, priority 2021, published 2024).
Counter-ions that a name gives are not always drawn. Like-named read-outs stand apart in the source and are kept apart here.

Legend:
[1] = system: S. aureus; assay: Disk diffusion assay, S. aureus; type: cell-based
Protocol: (§1) The following disk diffusion assays were performed with example compounds described above to assess the ability of compounds to inhibit growth of microorganism. A compound that inhibits its target enzyme may perform poorly for a number of reasons, including low solubility in water or slow rate of transport across a microbial membrane.

[2] = system: K pneumoniae; assay: Disk diffusion assay, K pneumoniae; type: cell-based
Protocol: as §1

[3] = molecular target: T1, CalASADH (Candida albicans, UniProt Q5ALM0); assay: Reversibility of CalASADH inactivation by exogenous thiols; type: biochemical; conditions: incubated 10 min, read-out: residual activity of CalASADH
T1 construct: His tag; made in house
T1 sequence (Q5ALM0 1-365): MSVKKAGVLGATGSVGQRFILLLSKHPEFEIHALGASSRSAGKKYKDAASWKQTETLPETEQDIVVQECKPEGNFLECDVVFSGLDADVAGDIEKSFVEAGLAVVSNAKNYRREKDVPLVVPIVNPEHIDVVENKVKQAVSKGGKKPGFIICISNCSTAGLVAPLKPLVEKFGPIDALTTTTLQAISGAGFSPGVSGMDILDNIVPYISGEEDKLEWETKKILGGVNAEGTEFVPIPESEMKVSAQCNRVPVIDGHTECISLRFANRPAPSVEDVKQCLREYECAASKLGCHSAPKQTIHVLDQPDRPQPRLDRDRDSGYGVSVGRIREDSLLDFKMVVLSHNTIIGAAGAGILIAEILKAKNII
Protocol: This loss of activity supports the hypothesis that these vinyl sulfones are covalently modifying this enzyme. To determine whether this inactivation can be reversed by the introduction of an exogenous nucleophile a large excess of either cysteine (5 mM) or glutathione (10 mM) was added to the reaction mixture after incubation, and the activity of this inactivated enzyme was then monitored. Samples of CalASADH that had been incubated either with 3 μM 4-(methylvinylsulfonyl)nitrobenzene or with 100 μM 3-(phenylsulfonyl)acrylic acid for 10 min were measured to have from 5 to 10% residual activity. At this point, after either cysteine or glutathione was added to each reaction mixture, the residual enzyme activity was monitored as described above.

[4] = molecular target: T2, Candida albicans ASADH (CalASADH), aspartate semialdehyde dehydrogenase, his-tagged (Candida albicans, UniProt Q5ALM0); assay: Inhibition/time-dependent inactivation of Candida albicans ASADH by vinyl sulfones (purified his-tagged enzyme; NADPH production at 340 nm); type: biochemical; conditions: FIG. 5; pH 8.6, 25° C., 0.3 mM ASA, 1.5 mM NADP, 20 mM phosphate; irreversible covalent inactivators
T2 construct: His tag; made in house
T2 sequence (Q5ALM0 1-365): T1 sequence (Q5ALM0 1-365)
Protocol: FIG. 5 is a table showing the affinities and the rates of inactivation of example vinyl sulfones as inactivators of a fungal ASADH, in accordance with some embodiments of the present technology;
Their initial inhibition potencies (Ki values) were determined by varying the concentration of each vinyl sulfone in the presence of fixed, non-saturating substrate levels.
Aryl vinyl sulfones can be reasonably potent inhibitors of CalASADH, each inhibitor was then tested to determine if it would function as an enzyme inactivator. […] In most cases the residual enzyme activity, measured following a subsequent 20-fold dilution into an assay mixture, decreased to less than 5% of the control rate after incubation with low micromolar levels of these inactivators for 10 min or less. To determine the rate of inactivation the concentration of each vinyl sulfone in this pre-incubation mixture was then varied, centered around their initial measured Ki values. The rate of activity loss observed in each incubation reaction (kobs) was plotted against the inhibitor concentration to determine the inactivation rate (kinact) for that compound and the concentration that produces half-maximal inactivation (Ki). […] The proposed product of the reaction of the active site nucleophile (Cys-156) with this inactivator predicts key interactions of the p-nitro group with Arg-18 and Ser-187, and the protonation of the covalent intermediate by His-256. […] Reaction of this inactivator with the active site nucleophile (Cys-156) predicts keys interactions between its carboxyl group and several backbone amide nitrogens that would shift this adduct further from the active site base (His-256). FIG. 3 illustrates inactivation of Candida albicans ASADH by 4-(methylvinylsulfonyl)nitrobenzene. Plot of the natural log of the ratio of enzyme activity at each time point over the initial enzyme activity, showing the loss of activity as a functional of incubation time for different concentrations of inactivator: 0 μM, 0.75 μM, 1.5 μM, 3 μM, 6 μM. The resulting observed rates at each concentration (kobs) were plotted against the inactivator concentration and a non-linear fit to these replotted data yielded the rate of inactivation (kinact) and the inhibition constant (Ki).
The ASADH from Candida albicans (CalASADH) was purified using an ÄKTA chromatography system as previously described (Arachea et al., 2010), with only minor modifications. A nickel-immobilized metal affinity (IMAC) column was used for the purification of the his-tagged enzyme, with an initial buffer wash containing 20 mM imidazole to remove loosely bound proteins before elution with a 20 to 400 mM imidazole gradient. The enzyme activity was assayed at 25° C. by following the production of NADPH at 340 nm in a SpectraMax 190 plate reader (Molecular Devices). Enzyme inhibitors were evaluated by the same assay in the presence of 120 mM CHES buffer, pH 8.6, with 120 mM KCl, 0.3 mM ASA, 1.5 mM NADP, 20 mM phosphate and varying concentrations of each potential inhibitory compound to be tested. The data were fitted to a competitive inhibitor model which corrects for the levels of substrates present relative to their individual Km values.
To examine the possibility of enzyme inactivation each vinyl sulfone compound was incubated in a defined concentration range with 30 μg/ml of CalASADH, with the inhibitor concentrations grouped around their determined Ki values. Aliquots (10 μl) were removed from the enzyme-inhibitor reaction mixture at various times ranging from 30 secs to 60 min, with most compounds examined from 1 to 10 min at 2 min intervals. Each aliquot was then added to a 190 μl of the same assay mixture as described above for the inhibition studies to measure the residual enzyme activity. […]

[5] = molecular target: Vibrio cholera ASADH (V. cholera ASADH), aspartate semialdehyde dehydrogenase; assay: Inactivation of the bacterial ASADH ortholog from Vibrio cholera by vinyl sulfones (comparison with the fungal enzyme); type: biochemical; conditions: FIG. 6, irreversible covalent inactivators
Excerpt: FIG. 6 is a table showing a comparison of the differences in affinities and rates of inactivation of example vinyl sulfones as inactivators of either a bacterial or a fungal ASADH, in accordance with some embodiments of the present technology; and
Enhanced reactivity upon binding to an enzyme target is a desirable property if these vinyl sulfones are to serve as effective antifungal agents. However, increased selectivity in target binding is equally important. […] The ASADH from the […] bacterium Vibrio cholera has >90% overall sequence homology to the C. albicans enzyme, with the exception of a helical domain insert (Arachea et al., 2010), and all of the essential active site functional amino acids are fully conserved between these enzyme forms. Five different vinyl sulfones that span the fungal ASADH potency spectrum were selected and examined as potential inactivators of the bacterial ASADH. […] However, importantly, several of these compounds already show some level of discrimination between the fungal and bacterial ASADHs (Table 3).
Ideally, any antifungal agent should have high specificity, interacting only with its intended target. […] Each of the vinyl sulfones that were examined as inactivators of a fungal ASADH were also found to inactivate the bacterial ASADH ortholog, but several of them do so with lower efficiencies. In particular, the best fungal ASADH inactivators with a polar functional group at the 4-position of the benzyl ring are from 7 to 9-fold less efficient when examined as bacterial ASADH inactivators (See e.g. Table 3). By contrast, the inactivators with this polar group in the 2- or 3-position show no significant differences in reactivity between the fungal and bacterial forms of ASADH. The respective active sites of these two ASADH orthologs are virtually identical. However, a conserved arginine (Arg-18) found in fungal ASADH that is proposed to interact with the 4-nitro or the 4-carboxy groups in these inactivators (FIG. 1) is replaced with either a valine or a threonine in the bacterial ASADH family.
The ASADH from Candida albicans (CalASADH) was purified using an ÄKTA chromatography system as previously described (Arachea et al., 2010), with only minor modifications. […] The enzyme activity was assayed at 25° C. by following the production of NADPH at 340 nm in a SpectraMax 190 plate reader (Molecular Devices). Enzyme inhibitors were evaluated by the same assay in the presence of 120 mM CHES buffer, pH 8.6, with 120 mM KCl, 0.3 mM ASA, 1.5 mM NADP, 20 mM phosphate and varying concentrations of each potential inhibitory compound to be tested. […]

[6] = molecular target: C. auris ASADH (Candidozyma auris, UniProt A0A2H0ZN20); assay: C. auris ASADH irreversible inhibition; type: biochemical
Protocol: These amino acid analogs may be synthesized in accordance with various techniques and schemes provided herein. Two are vinyl sulfones and one is an acrylamide. Accordingly, the core functional group of compounds described herein can be at least one of a vinyl sulfone and/or an acrylamide. The vinyl sulfones were tested against C. auris ASADH as irreversible inhibitors.

C. auris ASADH, sequence (A0A2H0ZN20 entry or part of it): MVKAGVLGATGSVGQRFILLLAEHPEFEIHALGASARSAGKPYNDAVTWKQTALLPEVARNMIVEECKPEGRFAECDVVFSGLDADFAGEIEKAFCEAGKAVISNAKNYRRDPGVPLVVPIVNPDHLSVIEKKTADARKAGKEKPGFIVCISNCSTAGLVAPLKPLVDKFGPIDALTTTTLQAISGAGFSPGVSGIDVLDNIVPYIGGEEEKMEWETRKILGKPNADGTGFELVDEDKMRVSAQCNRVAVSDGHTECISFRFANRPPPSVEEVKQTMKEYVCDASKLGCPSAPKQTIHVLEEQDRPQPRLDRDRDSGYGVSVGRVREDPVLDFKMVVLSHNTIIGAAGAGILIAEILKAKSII

SMILES	Ki [4] [µM]	other results
CS(=O)(=O)/C=C/c1cc(O)ccc1O [2-MSV-dihydroxbenzene, 2-(S-methylsulfonylvinyl)1,4-dihydroxybenzene]	–	disk diffusion, S. aureus ([1]; aromatic compounds): medium; disk diffusion, K pneumoniae ([2]; aromatic compounds): weak
O=C(O)/C=C/S(=O)(=O)c1ccccc1 [3-(phenylsulfonyl)acrylic acid]	–	remaining activity at 100 µM ([3]; 100 μM): 5 to 10%
CS(=O)(=O)/C=C/c1ccc([N+](=O)[O-])cc1 [4-(methylvinylsulfonyl)nitrobenzene, 4-(methylsulfonylvinyl)nitrobenzene]	–	remaining activity at 3 µM ([3]; 3 μM): 5 to 10%
CS(=O)(=O)/C=C/c1ccc(C(=O)O)cc1 [Compound 1, 4-(methylsulfonylvinyl)benzoic acid]	0.78 ± 0.1	Ki [5]: 4.45 ± 0.25 µM
CS(=O)(=O)/C=C/c1ccc([N+](=O)[O-])cc1 [Compound 2, 4-(methylsulfonylvinyl)nitrobenzene]	1.02 ± 0.28	Ki [5]: 6.29 ± 0.59 µM
CS(=O)(=O)/C=C/c1ccccn1 [Compound 3, 2-(methylsulfonylvinyl)pyridine]	2.64 ± 0.22	–
CS(=O)(=O)/C=C/c1ccc(O)c(O)c1 [Compound 4, 4-(methylsulfonylvinyl)-1,2-benzenediol]	3.52 ± 0.42	–
O=S(=O)(/C=C/c1ccncc1)c1ccccc1 [Compound 5, 4-(phenylsulfonylvinyl)pyridine]	2.16 ± 0.24	–
CS(=O)(=O)/C=C/c1ccccc1 [Compound 6, Methylsulfonylvinylbenzene]	4.26 ± 0.83	–
O=S(=O)(/C=C/c1ccccc1)C(F)(F)F [Compound 7, Trifluoromethylsulfonylvinylbenzene]	21.7 ± 8	–
O=S(=O)(/C=C/c1ccccn1)c1ccccc1 [Compound 8, 2-(Phenylsulfonylvinyl)pyridine]	8.49 ± 0.94	–
CS(=O)(=O)/C=C/c1ccncc1 [Compound 9, 4-(methylsulfonylvinyl)pyridine]	5.69 ± 0.78	–
CS(=O)(=O)/C=C/c1cccnc1 [Compound 10, 3-(methylsulfonylvinyl)pyridine]	25.1 ± 6.8	–
O=S(=O)(/C=C/c1cccnc1)c1ccccc1 [Compound 11, 3-(Phenylsulfonylvinyl)pyridine]	42.2 ± 3	–
CS(=O)(=O)/C=C/c1cccc([N+](=O)[O-])c1 [Compound 12, 3-(methylsulfonylvinyl)nitrobenzene]	19.6 ± 1.4	Ki [5]: 10.3 ± 2.3 µM
CS(=O)(=O)/C=C/c1cccc(C(=O)O)c1 [Compound 13, 3-(methylsulfonylvinyl)benzoic acid]	36.9 ± 6.2	–
CS(=O)(=O)/C=C/c1ccccc1[N+](=O)[O-] [Compound 14, 2-(methylsulfonylvinyl)nitrobenzene]	56.7 ± 2.7	Ki [5]: 2.57 ± 0.23 µM
O=C(O)/C=C/S(=O)(=O)c1ccccc1 [Compound 15, 3-(phenylsulfonyl)acrylic acid]	67.1 ± 15.8	–
CS(=O)(=O)/C=C/C(N)=O [MeSAm, 3-S-Methylsulfonylacrylamide]	–	disk diffusion, S. aureus ([1]; vinyl sulfone carboxamides): strong; disk diffusion, K pneumoniae ([2]; vinyl sulfone carboxamides): strong
NC(=O)/C=C/S(=O)(=O)c1ccccc1 [PhSAm, 3-S-Phenylsulfonylacrylamide]	–	disk diffusion, S. aureus ([1]; vinyl sulfone carboxamides): strong; disk diffusion, K pneumoniae ([2]; vinyl sulfone carboxamides): strong
NC(C/C=C/S(=O)(=O)Cc1ccccc1)C(=O)O (centres unmarked) [S-benzylsulfonylvinylalanine, 3-(benzylsulfonylvinyl)-alanine hydrochloride]	–	Ki [6]: 0.3 µM
CS(=O)(=O)C=CC[C@H](N)C(=O)O [S-methylsulfonylvinylacrylamide, 3-(S-methylsulfonylvinyl)-alanine hydrochloride]	–	Ki ([6]; irreversible inhibitors, read-out: inhibitory constant): 0.1 µM
